{"source": "patent US20120129872A1", "about": "“FUSED HETEROARYL INHIBITORS OF PRO-MATRIX METALLOPROTEINASE ACTIVATION” (priority 2010, published 2012)", "key": {"MMP9": {"biological_target": "T1, MMP9 (Homo sapiens, UniProt P14780)", "T1 construct": "host or cells: HFL-1 human fetal lung fibroblasts", "T1 sequence (P14780 94-707)": "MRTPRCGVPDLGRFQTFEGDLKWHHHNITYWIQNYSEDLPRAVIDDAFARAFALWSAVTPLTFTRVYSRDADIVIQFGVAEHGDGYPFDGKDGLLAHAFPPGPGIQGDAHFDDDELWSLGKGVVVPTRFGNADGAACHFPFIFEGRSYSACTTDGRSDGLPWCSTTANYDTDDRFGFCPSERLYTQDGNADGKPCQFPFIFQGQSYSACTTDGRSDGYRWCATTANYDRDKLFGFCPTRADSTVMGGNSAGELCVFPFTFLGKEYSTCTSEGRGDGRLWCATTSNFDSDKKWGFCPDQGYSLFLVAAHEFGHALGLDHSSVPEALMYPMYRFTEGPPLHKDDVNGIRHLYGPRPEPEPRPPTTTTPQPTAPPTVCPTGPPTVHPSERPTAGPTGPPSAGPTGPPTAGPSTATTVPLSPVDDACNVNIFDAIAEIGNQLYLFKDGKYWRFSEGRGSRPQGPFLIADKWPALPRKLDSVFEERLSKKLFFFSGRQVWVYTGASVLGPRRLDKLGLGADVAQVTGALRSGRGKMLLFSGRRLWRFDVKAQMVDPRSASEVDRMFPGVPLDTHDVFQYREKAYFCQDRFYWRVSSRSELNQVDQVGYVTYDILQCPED", "experiment": "Activation of proMMP9 by human fetal lung fibroblast (HFL-1) cultures (Western blot)", "format": "cell-based", "settings": "3.3 μM, HFL-1, mAb-L51/82", "procedure": "Activation of proMMP9 by human fetal lung fibroblast cultures Compound-α was assessed additionally for ability to block the maturation of proMMP9 to active MMP9 in cultures of human fetal lung fibroblasts (HFL-1, American Type Culture Collection #CCL-153). Unlike rat synoviocytes, HFL-1 cells were unable to process proMMP9 to the active form without addition of neutrophil elastase. […] Rather, the function of elastase in this assay may be to inactivate tissue inhibitors of matrix metalloproteinases (TIMPs) that repress endogenous pathways of MMP9 activation (Am J Respir Crit. Care Med; 1999; 159:1138-46).\nHLF-1 were maintained in monolayer culture in DMEM with 10% FCS and were used between passage numbers 5-15. HLF-1 were embedded in collagen gels as described for rat SCW synoviocytes (vida supra). Half mL gels containing 0.4 million cells were dislodged into wells of 12 well Costar plates containing 1 mL/well of DMEM adjusted to contain 0.05% BSA and 100 ng/mL human TNFα (R&D Systems Cat #210-TA/CF). After overnight culture (37° C. and 5% CO2) wells were adjusted to contain an additional 0.5 mL of DMEM containing 0.05% BSA and with or without 13.2 μM Compound-α (final concentration was 3.3 μM Compound-α). Next, cultures were adjusted to contain 30 nM human elastase (Innovative Research). The plates were cultured an additional 72 hrs, at which time MMP9 secreted into the conditioned media was bound to gelatin-sepharose and evaluated by Western blot analysis as described for the rat synoviocyte cultures (vida supra). mAb-51/82 detected three forms of MMP9 in HFL-1 cultures.\nThese included a form of approximately 100 kD with mobility similar to recombinant rat proMMP9, an approximately 80 kD form with mobility similar to rat active MMP9, and an approximately 86 kD intermediate form. In the absence of Compound-α, most of the MMP9 was present as the 80 kD form. In the presence of Compound-α, the 80 kD form was a minor fraction of the total signal while nearly half of the signal were contributed each by the 100 kD and 86 kD forms. […]\nA second experiment was performed to determine if the 80 kD form was mature active MMP9 and to determine the potency of Compound-α as an inhibitor of MMP9 maturation in this assay. HFL-1 cells embedded in collagen gels were cultured as described above in the presence of TNFα overnight and the cultures were then adjusted to contain 30 nM elastase and graded concentrations of Compound-α for an additional 72 hrs at which time MMP9 secreted into the conditioned media was bound to gelatin-sepharose and evaluated by Western blot analysis for active MMP9 using pAb-1246 raised against the N-terminal neoepitope of active MMP9 (Table 5). In the absence of Compound-α, pAb-1246 readily detected MMP9 with an electrophoretic mobility of approximately 80 kD. […]"}, "[1]": {"biological_target": "T2, MMP9 mediated gelatinase activity (Rattus norvegicus, UniProt P50282)", "T2 construct": "from tissue; host or cells: liver sections of female Lewis rats", "T2 sequence (P50282 108-708)": "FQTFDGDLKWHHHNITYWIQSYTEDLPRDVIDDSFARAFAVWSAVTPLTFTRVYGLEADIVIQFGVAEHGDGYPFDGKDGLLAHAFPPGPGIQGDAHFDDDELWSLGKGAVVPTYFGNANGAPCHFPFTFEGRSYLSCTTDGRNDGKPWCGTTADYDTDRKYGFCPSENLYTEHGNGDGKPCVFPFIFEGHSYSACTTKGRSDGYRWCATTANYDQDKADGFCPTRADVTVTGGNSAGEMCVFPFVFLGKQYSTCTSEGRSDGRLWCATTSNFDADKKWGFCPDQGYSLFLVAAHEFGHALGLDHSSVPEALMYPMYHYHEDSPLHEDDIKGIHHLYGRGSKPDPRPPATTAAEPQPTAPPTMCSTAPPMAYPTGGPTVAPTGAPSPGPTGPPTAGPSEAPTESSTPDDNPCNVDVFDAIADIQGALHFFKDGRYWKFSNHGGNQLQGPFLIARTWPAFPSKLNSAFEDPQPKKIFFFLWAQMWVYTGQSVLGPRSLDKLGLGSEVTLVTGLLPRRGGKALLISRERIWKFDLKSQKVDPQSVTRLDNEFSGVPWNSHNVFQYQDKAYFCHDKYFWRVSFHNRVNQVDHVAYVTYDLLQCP", "experiment": "In situ zymography of gelatinase activity in livers of SCW-induced rats", "format": "in vivo", "settings": "for Intensity, Rat 1 / Intensity, Rat 2 / Intensity, Rat 3 / Intensity, Mean: liver", "from_the_text": "In situ zymography provides an alternative approach to assess active MMP9 in tissues (Frederiks). Tissue sections are overlain with fluorescene-conjugated gelatin wherein the conjugation is sufficiently dense to cause the fluorescene to be dye-quenched (DQ). Proteolytic degradation of the DQ-gelatin releases the fluorescene from the quenching effect giving rise to bright green fluorescence at the site of degradation. Because in situ zymography requires the use of frozen sections, calcified tissues are problematic. However, an additional feature of the SCW arthritis model is the development of hepatic granulomatous disease (J Immunol; 1986; 137:2199-2209), and MMP9 reportedly plays a role in macrophage recruitment in the granulomas response to mycobacteria (Infect Immun; 2006; 74:6135-6144). Consequently, granulomatous livers from SCW-treated rats were assessed for active MMP9 by in situ zymography.\nAs described above, Female Lewis (LEW/N) rats, 5-6 weeks of age (80-100 g) were injected (i.p.) with saline or SCW PG-PS. On day 28, when the granulomatous response was well established, animals were sacrificed and livers were frozen in OCT cryo-sectioning medium and […] sections were cut on a Cryome HM 500 M cryotome and mounted on glass microscope slides. Sections were air dried briefly. MMP9 was confirmed as the source of the gelatinase activity in the liver by treating liver sections with monoclonal antibodies directed against the active site of the two major gelatinases MMP9 and MMP2. Liver sections overlain with 50 μL of 100 μg/mL neutralizing mouse monoclonal antibodies directed against MMP9 (Calbiochem, clone 6-6B), or MMP2 (Millipore, clone CA-4001), or with PBS for 1 hr at room temperature. Tissues were rinsed once with PBS, blotted, and briefly air dried and then overlain with DQ-gelatin (Invitrogen) dissolved to 1 mg/mL in deionized water and then diluted 1:10 in 1% wt/vol low gelling point agarose type VII (Sigma) in PBS. The sections were covered with coverslips, incubated in the dark at room temperature for 20 min, and imaged on an Olympus IX80 inverted microscope fitted with fluorescence optics, using SlideBook™ imaging software (Intelligent Imaging Innovations, Inc., Philadelphia, Pa.; version 5.0). Fluorescence intensity was determined (Table 8). When compared to a saline-treated rat, gelatinase activity was abundantly expressed in granulomatous liver sections obtained from a rat with SCW arthritis.\nNext, liver in situ zymography was used to assess the relative presence of active MMP9 in rats dosed with vehicle vs. Compound-α. Female Lewis (LEW/N) rats, 5-6 weeks of age (80-100 g) were injected (i.p.) with saline or SCW PG-PS. Commencing on day 25, randomized groups of rats (n=3 rats/group) received vehicle or 20 or 50 mg/kg Compound-α BID by oral gavage. Vehicle consisted of an aqueous mixture containing 2% (v:v) N-methylpyrrolidone, 5% (v:v) glycerine, and 20% (w:v) captisol. Treatment continued daily through the morning of day 28. Four hrs after the AM dose on day 28, rats were sacrificed and livers assessed for active MMP9 by in situ zymography (Table 9). Gelatinase activity was increased markedly in SCW-induced rats, but activity was reduced by approximately 80% in animals treated with 50 mg/kg Compound-α."}}, "data": [{"smiles": "Cc1nc(C)c(-c2csc(Nc3cc(S(N)(=O)=O)ccc3OC(C)C)n2)s1", "note": "[Compound-α, 3-(2′,4′-Dimethyl-[4,5′]bithiazolyl-2-ylamino)-4-isopropoxy-benzenesulfonamide•HBr]", "values": [{"measurement": "Percent of total signal, 80 kD", "setting": "MMP9", "value": 7, "unit": "%"}, {"measurement": "Percent of total signal, 86 kD", "setting": "MMP9", "value": 47, "unit": "%"}, {"measurement": "Percent of total signal, 100 kD", "setting": "MMP9", "value": 46, "unit": "%"}, {"measurement": "Signal, Total", "setting": "MMP9", "value": 91346, "unit": "INT * mm^2"}, {"measurement": "Reduction of liver gelatinase activity", "setting": "[1]; 50 mg/kg BID Day 25-28", "value": "approximately 80%"}, {"measurement": "Intensity, Rat 1", "setting": "[1]; 20 mg/kg BID Day 25-28", "value": 43.0, "unit": "RLU × 10^6"}, {"measurement": "Intensity, Rat 2", "setting": "[1]; 20 mg/kg BID Day 25-28", "value": 69.0, "unit": "RLU × 10^6"}, {"measurement": "Intensity, Rat 3", "setting": "[1]; 20 mg/kg BID Day 25-28", "value": 53.7, "unit": "RLU × 10^6"}, {"measurement": "Intensity, Mean", "setting": "[1]; 20 mg/kg BID Day 25-28, n=3", "value": 55.2, "unit": "RLU × 10^6"}, {"measurement": "Intensity, Rat 1", "setting": "[1]; 50 mg/kg BID Day 25-28", "value": 3.2, "unit": "RLU × 10^6"}, {"measurement": "Intensity, Rat 2", "setting": "[1]; 50 mg/kg BID Day 25-28", "value": 25.6, "unit": "RLU × 10^6"}, {"measurement": "Intensity, Rat 3", "setting": "[1]; 50 mg/kg BID Day 25-28", "value": 4.5, "unit": "RLU × 10^6"}, {"measurement": "Intensity, Mean", "setting": "[1]; 50 mg/kg BID Day 25-28, n=3", "value": 11.1, "unit": "RLU × 10^6"}]}]}
